Reference: article PMC6333900, “Discovery of peptide ligands targeting a specific ubiquitin-like domain–binding site in the deubiquitinase USP11” (The Journal of Biological Chemistry, 2018)
No end group written: not given here.

What follows are substances tested on USP11_DU (USP11 N-terminal DUSP–UBL domains) (assay: Next-generation phage display enrichment (two-proportion Z test, round 3 of panning)). Settings: enrichment on USP11_DU vs unrelated His-tagged control protein (flagellin fragment), after three rounds of panning, gpVIII phage-displayed nonapeptide.
Assay type: binding, human
Excerpt: An NGPD approach was applied to the identification of USP11 ligands as schematically depicted in Fig. 1B. A randomized linear peptide library fused to the gpVIII protein was used to isolate peptides that interact with the USP11 N-terminal DU domains (DUSP and UBL domains in tandem; USP11_DU; Fig. 1A). After three biopanning rounds, phage ssDNA was extracted and purified, and peptide sequences were amplified and deep-sequenced. […] A graphical representation of the residue frequency within the motifs as computed by the Multiple EM for Motif Elicitation (MEME) algorithm ([33]) is shown in Fig. 1C. The thermodynamic binding parameters of synthetic peptides representative of both motifs, including the N-terminal phage protein sequence (AEGEF), AEGEFYKLKIRTPQ (referred to as FYLIR peptide) and AEGEFLELLKASRW (referred to as LXLL peptide), were determined by isothermal titration calorimetry (ITC). Peptides harboring either motif bound USP11_DU with dissociation constants of about 10 μM (8.86 ± 1.13 μM for AEGEFYKLKIRTPQ and 6.92 ± 2.25 μM for AEGEFLELLKASRW; Fig. 1D).
The peptide phage display library used for biopanning experiments (kindly provided by Professor Franco Felici, University of Molise, Italy; designated PC89VIII) is based on the PC89 phagemid vector ([50]) with a nonapeptide inserted at the N terminus of the phage major coat protein pVIII and a reported diversity of ∼10^7. The library was transformed into Escherichia coli TG1 supE thi-1 Δ(lac-proAB) Δ(mcrB-hsdSM)5(rK-mK) [F′traD36 proAB lacIqZΔM15], which was the strain used for all manipulations and phage rescue. Libraries were grown to mid-log phase (OD600 ∼0.6), superinfected with M13KO7 helper phage (Pharmacia LKB), and incubated overnight at 30 °C (250 rpm) to produce phage particles. Phage was harvested, and PEG was precipitated only for the first panning round. For all subsequent selection rounds (three in total), supernatant phage was used directly. Biopanning was carried out once, as described previously ([51]), and proteins were immobilized on cobalt beads (Dynabeads) (solution phase panning). A total of 100 μg of USP11_DU was immobilized for each round. In parallel, the phage isolated at each round against USP11_DU was also bound against an unrelated His-tagged control protein under the same conditions. This control protein was a fragment of flagellin, a virulence factor from E. coli O157:H7, amino acid residues 164–495, and the protein was used as it is unrelated to the target proteins and carried a C-terminal His tag. Bound phage were washed 10–20 times with PBS (10 mM phosphate buffer, pH 7.2–7.4, with 150 mM NaCl) plus 0.1% (v/v) Tween (PBST) and then PBS. Bound phage were eluted from the beads with 100 mM triethylamine and neutralized in 1 M Tris, pH 7.4. Half of the eluted phage was used for infection of TG1 cells, which were plated and used to make glycerol stocks.
The ssDNA of eluted phage for round 3 of selection against the USP11_DU target and the control protein was extracted and purified using the QIAprep Spin M13 kit. Subsequently, phage ssDNA was precipitated with ethanol and stored as a dry pellet to be used as a PCR template. For the amplification of the unknown peptide sequences, a two-step PCR strategy was followed, as described previously ([32]). The strategy produced an amplicon of ∼330 bp, and each sample contained a unique barcoded sequence. Each sample's DNA concentration was determined by the Agilent 2100 Bioanalyzer using the DNA 1000 kit. Based on the concentration readings for the peak of interest, samples were pooled in equal amounts, purified by the Agencourt AMPure XP kit, and run on a 2% (w/v) agarose gel. The band of ∼330 bp was excised from the gel and purified using the NucleoSpin Gel and PCR Clean-up kit. Finally, the concentration and size of the pooled DNA were measured on a Bioanalyzer. NGPD was carried out once for each round of panning. […]

Row | Substance | Z score
1 | LRLLALSRT | 4.4
2 | LELLKASRW | 108.7
3 | PELLKASRW | 3.6
4 | YRLKIRTPQ | 5.5
5 | NKLKIRTPQ | 2.8
6 | LELVRRSPA | 3.7
7 | LQLPALSRT | 4.1
8 | YKLKIRTLQ | 3.7
9 | LQLLAPSRT | 3.0
10 | LELVRCSPV | 3.2
11 | YKLKIRAPQ | 7.9
12 | YKLEIRTPQ | 5.6
13 | YELKIRTPQ | 4.6
14 | LELVRHSPV | 3.0
15 | YKLKIQTPQ | 4.0
16 | YKLKVRTPQ | 5.7
17 | LAMLTRGRP | 3.0
18 | CKLKIRTPQ | 5.6
19 | LESLKASRW | 4.9
20 | HKLKIRTPQ | 5.5
21 | YKLKIRTPL | 3.2
22 | LQLLALSRA | 3.6
23 | LQLLALSRT | 70.9
24 | LELVRRSPV | 89.0

Row | Substance | Z score
25 | LALIKRQPL | 18.1
26 | LELVRRSSV | 3.0
27 | YKLKTRTPQ | 4.5
28 | YKLKIRTSQ | 3.6
29 | LELARRSPV | 4.1
30 | YKLRIRTPQ | 5.8
31 | YKLKIRIPQ | 4.4
32 | LALLMRQRP | 19.0
33 | LGLLKASRW | 4.4
34 | LELVCRSPV | 2.8
35 | YKLKIRTPQ | 168.4
36 | LELLEASRW | 5.0
37 | YKPKIRTPQ | 6.6
38 | LELLKAPRW | 3.6
39 | LELLRASRW | 4.6
40 | PQLLALSRT | 3.9
41 | YKLKIRTPR | 7.1
42 | LELVHRSPV | 4.1
43 | LELLKALRW | 3.0
44 | LELPKASRW | 4.5
45 | LELLKASRR | 4.8
46 | LEPVRRSPV | 4.1
47 | LELLKVSRW | 3.0

The substances below were run against T1, full-length USP11 (FL-USP11) (Homo sapiens, UniProt P51784) (assay: Isothermal titration calorimetry, full-length USP11). Settings: ITC, 30 μM protein in PBS, 25 °C, one site binding model; n=1; read-out: dissociation constant.
T1 construct: FYLIR peptide (AEGEFYKLKIRTPR) titrated into full-length USP11 (FL-USP11); His tag (inferred from nickel-chelate purification and the pColdI vector); made in house; host or cells: E. coli BL21-CodonPlus (pColdI), grown 72 h at 10 °C
T1 sequence (P51784 44-963 limits assumed): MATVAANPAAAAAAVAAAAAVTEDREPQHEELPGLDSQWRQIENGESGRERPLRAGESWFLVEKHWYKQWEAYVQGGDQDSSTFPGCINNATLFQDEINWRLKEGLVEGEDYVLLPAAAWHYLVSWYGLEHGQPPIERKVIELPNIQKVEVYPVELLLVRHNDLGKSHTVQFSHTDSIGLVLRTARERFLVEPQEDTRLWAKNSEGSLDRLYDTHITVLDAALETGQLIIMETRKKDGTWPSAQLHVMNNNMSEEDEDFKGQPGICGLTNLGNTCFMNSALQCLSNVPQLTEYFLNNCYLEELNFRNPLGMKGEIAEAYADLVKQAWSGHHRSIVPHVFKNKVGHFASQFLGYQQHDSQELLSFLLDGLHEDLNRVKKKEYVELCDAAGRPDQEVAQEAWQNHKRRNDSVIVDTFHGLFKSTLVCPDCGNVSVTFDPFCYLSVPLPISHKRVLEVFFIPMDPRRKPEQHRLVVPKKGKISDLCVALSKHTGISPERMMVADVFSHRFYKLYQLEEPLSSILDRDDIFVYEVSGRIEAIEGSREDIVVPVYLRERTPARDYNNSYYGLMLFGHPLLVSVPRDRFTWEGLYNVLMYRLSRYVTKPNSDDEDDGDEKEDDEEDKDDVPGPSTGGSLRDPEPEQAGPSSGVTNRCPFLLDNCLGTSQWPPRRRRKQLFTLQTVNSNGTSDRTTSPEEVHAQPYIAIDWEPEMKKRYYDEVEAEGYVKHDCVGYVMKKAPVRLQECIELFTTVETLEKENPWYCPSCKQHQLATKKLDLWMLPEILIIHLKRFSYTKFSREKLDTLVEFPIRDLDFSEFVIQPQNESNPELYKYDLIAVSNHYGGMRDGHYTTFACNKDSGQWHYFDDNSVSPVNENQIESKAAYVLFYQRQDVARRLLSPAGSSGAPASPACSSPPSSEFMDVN
Method: (§1) ITC data were measured on a MicroCal VP-ITC or a PEAQ ITC instrument to obtain the binding parameters for peptide ligand–USP11_DU interactions. The sample cell contained 30 μM protein in PBS buffer. Each peptide (at a concentration of 300 or 600 μM) was titrated into the sample cell in 8-μl (VP-ITC) or 2-μl (PEAK ITC) injections at a temperature of 25 °C. Spacing was typically 180 s, and a stirring speed of 300 rpm was used. The data were analyzed using NITPIC ([52]), SEDPHAT ([53]), and GUSSI software. ITC experiments were repeated at least twice independently apart from the USP15_DU, USP4_DU, and the FL-USP11 titrations with FYLIR peptide, which were conducted once.

Row | Substance | Kd
48 | AEGEFYKLKIRTPR-NH2 [AEGEFYKLKIRTPR] | ~12.5 µM

These substances were tested on USP11_DU^L208F/S242R (assay: Isothermal titration calorimetry, USP11_DU double mutant). Settings: 30 μM protein in PBS, peptide 300 or 600 μM, 25 °C, pocket-deficient double mutant, repeated at least twice.
Assay type: binding, human
Method: as §1

Row | Substance | binding by ITC
49 | AEGEFLRLLNFTKP [peptide harboring motif 2 (LXLL)] | abolished

The substances below were run on Panc1 cells (assay: Cell viability (Presto Blue assay), Panc1). Settings: Panc1, up to 10 μM, 24 h, Presto Blue, n=4 biological repeats (Fig. S6).
Assay type: cell-based, human
Method: Cells were plated in 96-well plates (2.5 × 10^4 cells/well) and treated with GET-FYLIR (0–50 μM) for 24 h. Cells were also treated with GET-Scrambled as a control. After treatment, cells were washed with PBS and then incubated for 15 min at 37 °C with a 100-μl Presto Blue solution (10% Presto Blue, Invitrogen in Hanks' balanced salt solution, Sigma). Change in the fluorescence was measured using a plate reader with the excitation/emission wavelengths set at 560/590 nm (Infinite® 200 PRO, TECAN), with untreated cells used as a control. All data sets were combined for the statistical analysis. A Sidak's multiple comparisons test was applied. N refers to the number of biological replicates.

Row | Substance | cell viability
50 | APKFEIRRGTYKLE [GET-Scrambled] | no significant effect

The substances below were run on Panc1 cells (assay: Cell uptake (flow cytometry), Panc1). Settings: 1 μM and 5 μM, 1 or 24 h, flow cytometry.
Assay type: cell-based, human
Method: Cells treated with GET-FYLIR or GET-Scrambled were analyzed on an Astrios cell sorter using a 488-nm […] laser (40,000 cells; gated on live cells by forward/side scatter). Gmean was used as the average cell intensity. All data sets were combined for the statistical analysis. A Sidak's multiple comparisons test was applied. N refers to the number of biological replicates.

Row | Substance | uptake profile, NIH3T3 versus Panc1
51 | APKFEIRRGTYKLE [GET-Scrambled] | no difference in the uptake profile between NIH3T3 and Panc1 cells

Same assay, conditions: NIH3T3 and Panc1, 1 and 5 μM, flow cytometry

Row | Substance | cellular delivery
52 | APKFEIRRGTYKLE [GET-Scrambled] | efficiently delivered
